Here are results for three molecules from the NIST ThermoML archive (doi:10.1021/acs.jced.9b00074).

Numbers after ± are expanded uncertainties.

As a reminder, the viscosity is the resistance of a fluid to flow. The term mass density denotes mass per unit of volume.

For this data set the following is noted: 100 kPa, Liquid; for viscosity: Falling or rolling sphere viscometry; for mass density: Vibrating tube method.

On to `CC12CC3CC(C1)CC(C)(C3)C2` [1,3-dimethyladamantane], for which the viscosity runs as follows: (293.15 K) 3.75 ± 0.08 mPa·s; (298.15 K) 3.34 ± 0.071 mPa·s; (303.15 K) 2.997 ± 0.064 mPa·s; (308.15 K) 2.702 ± 0.057 mPa·s; (313.15 K) 2.45 ± 0.052 mPa·s; (318.15 K) 2.231 ± 0.047 mPa·s. The viscosity turned out to be 2.039 ± 0.043 mPa·s (323.15 K), 1.871 ± 0.04 mPa·s (328.15 K) and 1.722 ± 0.037 mPa·s (333.15 K). Further, the mass density by setting is: (293.15 K) 901.57 ± 0.55 kg/m3; (298.15 K) 898 ± 0.54 kg/m3; (303.15 K) 894.43 ± 0.54 kg/m3; (308.15 K) 890.86 ± 0.54 kg/m3; (313.15 K) 887.29 ± 0.54 kg/m3; (318.15 K) 883.71 ± 0.54 kg/m3. In addition, the mass density was found to be 880.13 ± 0.53 kg/m3 (323.15 K), 876.55 ± 0.53 kg/m3 (328.15 K) and 872.96 ± 0.53 kg/m3 (333.15 K).

With `C1C[C@@H]2[C@H]3CC[C@H](C3)[C@@H]2C1` [exo-tetrahydrodicyclopentadiene], the viscosity is given as 3.017 ± 0.068 mPa·s (293.15 K); 2.731 ± 0.061 mPa·s (298.15 K); 2.488 ± 0.056 mPa·s (303.15 K); 2.273 ± 0.051 mPa·s (308.15 K); 2.087 ± 0.047 mPa·s (313.15 K); 1.922 ± 0.043 mPa·s (318.15 K). Also, the viscosity reads like this: (323.15 K) 1.776 ± 0.04 mPa·s; (328.15 K) 1.646 ± 0.037 mPa·s; (333.15 K) 1.53 ± 0.034 mPa·s. In addition, the mass density is reported as 935.88 ± 0.7 kg/m3 (293.15 K); 932 ± 0.69 kg/m3 (298.15 K); 928.08 ± 0.69 kg/m3 (303.15 K); 924.16 ± 0.69 kg/m3 (308.15 K); 920.24 ± 0.68 kg/m3 (313.15 K); 916.31 ± 0.68 kg/m3 (318.15 K). Moreover, the mass density (323.15 K) is reported as 912.38 ± 0.68 kg/m3, the mass density (328.15 K) was found to be 908.44 ± 0.68 kg/m3 and the mass density (333.15 K) came out at 904.5 ± 0.67 kg/m3.

For `OC1CCCC1` [cyclopentanol], the viscosity turned out to be 11.72 ± 0.25 mPa·s (293.15 K); 9.6 ± 0.2 mPa·s (298.15 K); 7.891 ± 0.17 mPa·s (303.15 K); 6.564 ± 0.14 mPa·s (308.15 K); 5.509 ± 0.12 mPa·s (313.15 K); 4.657 ± 0.099 mPa·s (318.15 K). For the same molecule, the viscosity was found to be 3.97 ± 0.084 mPa·s (323.15 K), 3.409 ± 0.072 mPa·s (328.15 K) and 2.945 ± 0.063 mPa·s (333.15 K). Further, the mass density was 947.04 ± 0.57 kg/m3 (293.15 K); 943.08 ± 0.57 kg/m3 (298.15 K); 939.08 ± 0.57 kg/m3 (303.15 K); 935.03 ± 0.56 kg/m3 (308.15 K); 930.92 ± 0.56 kg/m3 (313.15 K); 926.76 ± 0.56 kg/m3 (318.15 K). Further, the mass density runs as follows: (323.15 K) 922.53 ± 0.56 kg/m3; (328.15 K) 918.24 ± 0.55 kg/m3; (333.15 K) 913.89 ± 0.55 kg/m3.
